# Experimental data published in patent US20140011826A1, “METABOTROPIC GLUTAMATE RECEPTOR GROUP I ANTAGONISTS FOR TREATMENT OF ABNORMAL UNION OF TISSUE” (priority 2011, published 2014).
# Test system: post-operative intra abdominal adhesions
# Assay: Post-operative intra abdominal adhesion formation in rat after laparotomy and musculoperitoneal incision
# Assay type: in vivo
# Experimental: Reduction in the occurrence of post-operative intra abdominal adhesions in rat by treatment with the mGluRgIa compound 2-methyl-6-(phenylethynyl)-pyridine (MPEP) at a dose of 12.5 mg/kg 12 male Sprague-Dawleys rats (Charles River Laboratories International, Sutzfeld, Germany), weighing between 250 to 300 g at the initiation of the procedure, were kept at a number of two individuals in one cage of type H3, lined with wood chips and housed in standardized conditions, at a constant room temperature (22° C.) with 12-hour light and dark cycles. All animals were provided free access to standard rodent chow, tap water, nesting material and libitum. All surgical procedures were performed under aseptic conditions in a dedicated surgical animal operating room. The animals were anesthetized using continuous inhalation isoflurane 1.5% to 4% in oxygen, numbered and randomly assigned to two groups of 6 individuals each: one treatment group and one vehicle group. After shaving and disinfection of the abdomen, a 50 mm long midline laparotomy was performed to gain access to the abdominal cavity. A 18 mm long sharp incision was then made through the musculoperitoneal tissue on the left lateral abdominal wall below the epigastric vessel parallel with the midline incision. The injury site was immediately closed with four single sutures places equidistantly using 5-0 polypropylene threat (Prolene; Ethicon, Johnson & Johnson, Somerville, N.J., USA). Just before closing the abdomen, the animals received either mGluRgIa (MPEP 45.35 mM in vehicle) at a dose of 12.5 mg MPEP/kg (treatment group), or vehicle (0.9% NaC1, 10 w % dimethylacetatamide, ˜50 mM hydrochloride, vehicle group), by injecting the solution into the abdominal cavity. The midline laparotomy was then closed in two layers continuous suture using 5-0 polypropylene for the abdomen and 4-0 for the skin. […] Formation of adhesions between the injury site and other uninjured structures within the abdominal cavity was macroscopically evaluated and quantified using the grading ‘0’ for absence of adhesions or ‘1’ for formed adhesions.
structure (smiles),measurement,setting,value
"Cc1cccc(C#Cc2ccccc2)n1 [MPEP, 2-methyl-6-(phenylethynyl)-pyridine]",animals that had developed adhesions,"male Sprague-Dawley rats, 12.5 mg MPEP/kg injected into the abdominal cavity just before closing, evaluated macroscopically after one week, vehicle group 4 of 6",1 of the 6 animals
same,adhesions at the scar of the incision (picture of open abdomen),"treated rat no. 3 of Example 1, Pic. 1, 18 mm incision on left lateral abdominal wall",no visible adhesions
same,"adhesion grading per animal (six animals, one digit each)","treatment group, 12.5 mg MPEP/kg into the abdominal cavity, one week after surgery, vehicle group=111100",100000
